Measurements reported in patent publication US20080009418A1, “Selective Inhibitors” (Alchemia LTD., priority 2004, published 2008).

Tests used:
Conditions in all cases: compound at 10 μM
Human δ-opioid (DOP) = target: T1, Human δ-opioid (DOP) (Homo sapiens, UniProt P41143); assay: Radioligand binding, human δ-opioid (DOP) membranes, FlashPlate, [3H]-Bremazocine
T1 construct: purchased Perkin Elmer Biosignal
Method in brief: (§1)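 Cloned human receptor membranes were coated onto FlashPlate wells and incubated with radioligand and compound (added from a 0.5 mM DMSO daughter plate) for 1 hour at room temperature in the dark. Scintillation counting gave percent inhibition, with DMSO defining total and reference ligand defining non-specific binding.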

Human κ-Opioid (KOP) = target: T2, Human κ-Opioid (KOP) (Homo sapiens, UniProt P41145); assay: Radioligand binding, human κ-opioid (KOP) membranes, filtration, [3H]-Diprenorphine
T2 construct: purchased Perkin Elmer Biosignal
T2 sequence (P41145 whole entry): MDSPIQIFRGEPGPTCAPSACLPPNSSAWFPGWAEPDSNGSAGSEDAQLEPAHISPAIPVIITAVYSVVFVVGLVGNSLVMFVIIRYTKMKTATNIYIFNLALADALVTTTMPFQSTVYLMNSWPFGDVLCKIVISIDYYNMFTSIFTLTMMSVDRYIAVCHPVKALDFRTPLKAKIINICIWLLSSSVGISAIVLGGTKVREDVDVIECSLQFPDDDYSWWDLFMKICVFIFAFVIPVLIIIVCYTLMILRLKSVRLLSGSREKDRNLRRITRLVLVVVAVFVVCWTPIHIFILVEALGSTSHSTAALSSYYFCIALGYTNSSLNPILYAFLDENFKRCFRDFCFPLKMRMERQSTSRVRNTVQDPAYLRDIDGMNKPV
Method in brief: (§2)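 Percent inhibition of radioligand binding measured on recombinant human membranes: NK1 with [125I]-Substance P, KOP with [3H]-Diprenorphine. Incubation 1 h at room temperature, then harvest onto 0.3% PEI-soaked filters, cold Tris-HCl pH 7.4 washes and scintillation counting; non-specific binding from reference ligand wells.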

Human Melanocortin (MC3) = target: T3, Human Melanocortin (MC3) (Homo sapiens, UniProt P41968); assay: Radioligand binding, human melanocortin MC3 membranes, FlashPlate, [125I]-NDP-αMSH
T3 construct: purchased Perkin Elmer Biosignal
T3 sequence (P41968 whole entry): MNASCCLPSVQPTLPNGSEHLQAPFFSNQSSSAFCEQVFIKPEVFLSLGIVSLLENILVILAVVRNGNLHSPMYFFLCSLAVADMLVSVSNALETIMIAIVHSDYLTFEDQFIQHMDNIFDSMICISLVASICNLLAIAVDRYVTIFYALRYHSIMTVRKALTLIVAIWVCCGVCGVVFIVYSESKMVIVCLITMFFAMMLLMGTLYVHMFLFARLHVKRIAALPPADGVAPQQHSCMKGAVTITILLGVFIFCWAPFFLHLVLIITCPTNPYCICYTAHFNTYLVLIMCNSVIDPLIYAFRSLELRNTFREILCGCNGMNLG
Method in brief: as §1

Human Melanocortin (MC4) = target: T4, Human Melanocortin (MC4) (Homo sapiens, UniProt P32245); assay: Radioligand binding, human melanocortin MC4 membranes, FlashPlate, [125I]-NDP-αMSH
T4 construct: purchased Perkin Elmer Biosignal
T4 sequence (P32245 whole entry): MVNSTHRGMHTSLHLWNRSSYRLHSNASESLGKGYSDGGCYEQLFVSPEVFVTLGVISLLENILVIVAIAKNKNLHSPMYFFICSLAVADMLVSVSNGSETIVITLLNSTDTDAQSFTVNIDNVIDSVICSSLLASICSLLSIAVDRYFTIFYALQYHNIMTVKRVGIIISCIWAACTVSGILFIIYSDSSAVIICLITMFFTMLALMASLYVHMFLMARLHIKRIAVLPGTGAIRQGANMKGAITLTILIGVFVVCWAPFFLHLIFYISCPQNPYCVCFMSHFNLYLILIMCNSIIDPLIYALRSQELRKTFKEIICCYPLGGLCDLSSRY
Method in brief: as §1

Human melanocortin (MC5) = target: T5, Human melanocortin (MC5) (Homo sapiens, UniProt P33032); assay: Radioligand binding, human melanocortin MC5 membranes, FlashPlate, [125I]-NDP-αMSH
T5 construct: purchased Perkin Elmer Biosignal
T5 sequence (P33032 whole entry): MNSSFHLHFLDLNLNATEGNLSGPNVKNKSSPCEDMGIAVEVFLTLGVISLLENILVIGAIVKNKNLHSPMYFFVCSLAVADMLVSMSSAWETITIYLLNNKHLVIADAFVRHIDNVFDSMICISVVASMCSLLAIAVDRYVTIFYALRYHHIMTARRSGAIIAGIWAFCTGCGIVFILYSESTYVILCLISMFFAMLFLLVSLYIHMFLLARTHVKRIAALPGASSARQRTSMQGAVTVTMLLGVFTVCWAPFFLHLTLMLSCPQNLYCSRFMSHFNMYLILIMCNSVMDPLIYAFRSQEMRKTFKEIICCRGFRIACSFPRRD
Method in brief: as §1

[1] = target: T6, Human melanin-concentrating hormone (MCH1) (Homo sapiens, UniProt Q99705); assay: Radioligand binding, human melanin-concentrating hormone MCH1 membranes, FlashPlate, [125I]-S36057
T6 construct: purchased Perkin Elmer Biosignal
T6 sequence (Q99705 whole entry): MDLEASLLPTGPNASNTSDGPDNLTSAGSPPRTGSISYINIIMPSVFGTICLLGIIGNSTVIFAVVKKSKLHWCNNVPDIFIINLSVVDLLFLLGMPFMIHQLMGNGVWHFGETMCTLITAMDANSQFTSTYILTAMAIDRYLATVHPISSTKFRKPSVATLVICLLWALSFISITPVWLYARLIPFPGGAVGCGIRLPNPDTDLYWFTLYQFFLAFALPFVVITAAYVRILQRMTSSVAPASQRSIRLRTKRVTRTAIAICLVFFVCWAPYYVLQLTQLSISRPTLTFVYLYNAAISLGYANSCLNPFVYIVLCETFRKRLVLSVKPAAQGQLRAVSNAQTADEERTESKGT
Method in brief: as §1

Human μ-opioid (MOP) = target: T7, Human μ-opioid (MOP) (Homo sapiens, UniProt P35372); assay: Radioligand binding, human μ-opioid (MOP) membranes, FlashPlate, [3H]-Naloxone
T7 construct: purchased Perkin Elmer Biosignal
T7 sequence (P35372 whole entry): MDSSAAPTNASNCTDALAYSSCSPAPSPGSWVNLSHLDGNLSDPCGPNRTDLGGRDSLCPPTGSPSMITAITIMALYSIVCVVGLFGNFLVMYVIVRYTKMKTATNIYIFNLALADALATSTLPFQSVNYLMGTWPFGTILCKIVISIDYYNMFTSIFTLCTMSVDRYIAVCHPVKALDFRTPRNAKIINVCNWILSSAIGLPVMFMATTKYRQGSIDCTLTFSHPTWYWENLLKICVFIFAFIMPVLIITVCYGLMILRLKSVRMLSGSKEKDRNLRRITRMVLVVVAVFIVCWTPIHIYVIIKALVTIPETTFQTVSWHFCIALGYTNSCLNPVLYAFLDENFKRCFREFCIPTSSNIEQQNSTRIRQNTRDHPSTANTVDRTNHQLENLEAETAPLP
Method in brief: as §1

Human neurokinin (NK1) = target: T8, Human neurokinin (NK1) (Homo sapiens, UniProt P25103); assay: Radioligand binding, human neurokinin NK1 membranes, filtration, [125I]-Substance P
T8 construct: purchased Perkin Elmer Biosignal
T8 sequence (P25103 whole entry): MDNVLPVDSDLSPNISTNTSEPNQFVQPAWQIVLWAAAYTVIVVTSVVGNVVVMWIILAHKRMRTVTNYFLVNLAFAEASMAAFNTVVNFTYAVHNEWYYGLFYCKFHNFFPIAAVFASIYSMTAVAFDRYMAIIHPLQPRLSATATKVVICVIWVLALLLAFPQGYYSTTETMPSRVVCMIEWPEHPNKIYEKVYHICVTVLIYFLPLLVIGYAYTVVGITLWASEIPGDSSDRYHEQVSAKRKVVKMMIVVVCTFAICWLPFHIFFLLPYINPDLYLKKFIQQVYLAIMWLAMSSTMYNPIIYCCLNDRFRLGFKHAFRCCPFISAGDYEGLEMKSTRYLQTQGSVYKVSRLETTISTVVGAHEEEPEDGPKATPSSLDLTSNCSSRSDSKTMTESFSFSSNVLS
Method in brief: as §2

[2] = target: T9, Human neuropeptide Y (NPY-Y1) (Homo sapiens, UniProt P25929); assay: Radioligand binding, human neuropeptide Y NPY-Y1 membranes, FlashPlate, [125I]-PYY
T9 construct: purchased Perkin Elmer Biosignal
T9 sequence (P25929 1-384): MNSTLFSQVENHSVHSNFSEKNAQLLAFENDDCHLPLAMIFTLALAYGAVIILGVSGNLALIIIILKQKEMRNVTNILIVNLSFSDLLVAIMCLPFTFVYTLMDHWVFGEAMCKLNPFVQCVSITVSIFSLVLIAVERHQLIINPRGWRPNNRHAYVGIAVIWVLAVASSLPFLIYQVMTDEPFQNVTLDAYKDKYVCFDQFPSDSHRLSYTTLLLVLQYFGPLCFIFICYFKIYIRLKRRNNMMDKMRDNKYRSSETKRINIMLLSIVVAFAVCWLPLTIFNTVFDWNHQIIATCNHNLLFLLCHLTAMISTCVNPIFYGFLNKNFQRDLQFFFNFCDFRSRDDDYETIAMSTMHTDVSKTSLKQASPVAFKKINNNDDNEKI
Method in brief: as §1

Human opioid (ORL1) = target: T10, Human opioid (ORL1) (Homo sapiens, UniProt P41146); assay: Radioligand binding, human opioid ORL1 membranes, FlashPlate, [125I]-Nociceptin
T10 construct: purchased Perkin Elmer Biosignal
T10 sequence (P41146 whole entry): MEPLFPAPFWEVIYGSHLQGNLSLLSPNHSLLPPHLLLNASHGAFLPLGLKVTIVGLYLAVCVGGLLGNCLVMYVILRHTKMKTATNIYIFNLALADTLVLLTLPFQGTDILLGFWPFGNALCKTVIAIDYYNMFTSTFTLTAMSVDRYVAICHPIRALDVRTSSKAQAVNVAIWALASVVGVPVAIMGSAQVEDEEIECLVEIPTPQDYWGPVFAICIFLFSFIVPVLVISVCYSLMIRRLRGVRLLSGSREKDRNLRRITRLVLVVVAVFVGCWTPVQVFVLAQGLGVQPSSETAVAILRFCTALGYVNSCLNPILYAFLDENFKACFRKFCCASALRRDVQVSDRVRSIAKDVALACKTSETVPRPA
Method in brief: as §1

Mouse urotensin (mUR2) = target: T11, Mouse urotensin (mUR2) (Mus musculus, UniProt Q8VIH9); assay: Radioligand binding, mouse urotensin mUR2 membranes, FlashPlate, [125I]-Urotensin II
T11 construct: purchased Perkin Elmer Biosignal
T11 sequence (Q8VIH9 1-385): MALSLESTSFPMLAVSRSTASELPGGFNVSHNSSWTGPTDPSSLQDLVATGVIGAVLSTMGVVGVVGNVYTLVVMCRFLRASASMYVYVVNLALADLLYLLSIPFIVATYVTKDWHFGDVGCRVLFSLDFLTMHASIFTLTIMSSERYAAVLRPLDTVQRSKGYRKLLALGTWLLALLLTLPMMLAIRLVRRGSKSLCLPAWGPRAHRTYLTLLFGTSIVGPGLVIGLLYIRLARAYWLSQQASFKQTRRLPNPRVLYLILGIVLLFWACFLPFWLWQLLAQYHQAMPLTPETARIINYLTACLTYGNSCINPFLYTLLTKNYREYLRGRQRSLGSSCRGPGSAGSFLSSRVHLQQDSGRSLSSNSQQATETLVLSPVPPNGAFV
Method in brief: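 Cloned mouse urotensin (mUR2) receptor membranes from Perkin Elmer Biosignal were immobilized in FlashPlate microplates using a proprietary coating. Each well got 19.5 μl buffer, then 0.5 μl of DMSO, reference ligand, or compound. Adding 5 μl of [125I]-Urotensin II, diluted to 5× final concentration in binding buffer, started binding. Plates were sealed with TopSeal-A and incubated 1 hour at room temperature in the dark. Wells were counted for 30 seconds each on a TopCount after a 60-second delay, and percentage inhibition was calculated.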

T1 sequence (P41143 whole entry): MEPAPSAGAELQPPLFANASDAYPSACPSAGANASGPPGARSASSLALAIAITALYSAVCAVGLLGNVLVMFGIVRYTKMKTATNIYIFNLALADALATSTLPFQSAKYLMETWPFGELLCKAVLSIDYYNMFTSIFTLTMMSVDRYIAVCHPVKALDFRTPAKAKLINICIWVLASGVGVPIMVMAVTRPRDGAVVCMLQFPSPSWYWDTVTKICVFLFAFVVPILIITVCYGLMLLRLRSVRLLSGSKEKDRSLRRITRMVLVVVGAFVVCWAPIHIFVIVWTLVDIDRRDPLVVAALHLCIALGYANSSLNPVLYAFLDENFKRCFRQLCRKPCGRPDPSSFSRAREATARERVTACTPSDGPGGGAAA

COC[C@H]1OC(OCc2ccccc2)[C@H](NC(=O)CCCN)[C@@H](OCc2ccc3ccccc3c2)[C@@H]1O (stereo partly drawn) [compound 26]
A1 radioligand binding inhibition (Human δ-opioid (DOP); human δ-opioid (DOP) membranes): − (“−” indicates less than 50% inhibition at 10 μM)
A2 radioligand binding inhibition (Human κ-Opioid (KOP); human κ-opioid (KOP) membranes): − (“−” indicates less than 50% inhibition at 10 μM)
A3 radioligand binding inhibition (Human Melanocortin (MC3); human melanocortin MC3 membranes): − (“−” indicates less than 50% inhibition at 10 μM)
A4 radioligand binding inhibition (Human Melanocortin (MC4); human melanocortin MC4 membranes): − (“−” indicates less than 50% inhibition at 10 μM)
A5 radioligand binding inhibition (Human melanocortin (MC5); human melanocortin MC5 membranes): − (“−” indicates less than 50% inhibition at 10 μM)
A6 radioligand binding inhibition ([1]; human MCH1 membranes): − (“−” indicates less than 50% inhibition at 10 μM)
A7 radioligand binding inhibition (Human μ-opioid (MOP); human μ-opioid (MOP) membranes): − (“−” indicates less than 50% inhibition at 10 μM)
A8 radioligand binding inhibition (Human neurokinin (NK1); human neurokinin NK1 membranes): + (“+” indicates greater than 50% inhibition at 10 μM)
A9 radioligand binding inhibition ([2]; human NPY-Y1 membranes): − (“−” indicates less than 50% inhibition at 10 μM)
A10 radioligand binding inhibition (Human opioid (ORL1); human ORL1 membranes): − (“−” indicates less than 50% inhibition at 10 μM)
A11 radioligand binding inhibition (Mouse urotensin (mUR2); mouse urotensin mUR2 membranes): − (“−” indicates less than 50% inhibition at 10 μM)

CSC1OC(COCc2ccccc2)C(O)C(OCc2ccc3ccccc3c2)C1NC(=O)CCNC(=N)N (stereo not drawn) [compound 303]
A1: inhibition of radioligand binding, human δ-opioid (DOP) (Human δ-opioid (DOP); [3H]-Bremazocine): − (“−” indicates less than 50% inhibition at 10 μM)
A2: inhibition of radioligand binding, human κ-opioid (KOP) (Human κ-Opioid (KOP); [3H]-Diprenorphine): − (“−” indicates less than 50% inhibition at 10 μM)
A3: inhibition of radioligand binding, human melanocortin (MC3) (Human Melanocortin (MC3); [125I]-NDP-αMSH): − (“−” indicates less than 50% inhibition at 10 μM)
A4: inhibition of radioligand binding, human melanocortin (MC4) (Human Melanocortin (MC4); [125I]-NDP-αMSH): + (“+” indicates greater than 50% inhibition at 10 μM)
A5: inhibition of radioligand binding, human melanocortin (MC5) (Human melanocortin (MC5); [125I]-NDP-αMSH): + (“+” indicates greater than 50% inhibition at 10 μM)
A6: inhibition of radioligand binding, human melanin-concentrating hormone (MCH1) ([1]; [125I]-S36057): − (“−” indicates less than 50% inhibition at 10 μM)
A7: inhibition of radioligand binding, human μ-opioid (MOP) (Human μ-opioid (MOP); [3H]-Naloxone): − (“−” indicates less than 50% inhibition at 10 μM)
A8: inhibition of radioligand binding, human neurokinin (NK1) (Human neurokinin (NK1); [125I]-Substance P): + (“+” indicates greater than 50% inhibition at 10 μM)
A9: inhibition of radioligand binding, human neuropeptide Y (NPY-Y1) ([2]; [125I]-PYY): − (“−” indicates less than 50% inhibition at 10 μM)
A10: inhibition of radioligand binding, human opioid (ORL1) (Human opioid (ORL1); [125I]-Nociceptin): − (“−” indicates less than 50% inhibition at 10 μM)
A11: inhibition of radioligand binding, mouse urotensin (mUR2) (Mouse urotensin (mUR2); [125I]-Urotensin II): − (“−” indicates less than 50% inhibition at 10 μM)

COCC1OC(OCCc2ccccc2)C(NC(=O)CCN)C(OCc2ccccc2)C1O (stereo not drawn) [compound 216]
A1: inhibition of radioligand binding (Human δ-opioid (DOP); [3H]-Bremazocine, FlashPlate): − (“−” indicates less than 50% inhibition at 10 μM)
A2: inhibition of radioligand binding (Human κ-Opioid (KOP); [3H]-Diprenorphine, filtration): − (“−” indicates less than 50% inhibition at 10 μM)
A3: inhibition of radioligand binding (Human Melanocortin (MC3); [125I]-NDP-αMSH, FlashPlate): − (“−” indicates less than 50% inhibition at 10 μM)
A4: inhibition of radioligand binding (Human Melanocortin (MC4); [125I]-NDP-αMSH, FlashPlate): − (“−” indicates less than 50% inhibition at 10 μM)
A5: inhibition of radioligand binding (Human melanocortin (MC5); [125I]-NDP-αMSH, FlashPlate): − (“−” indicates less than 50% inhibition at 10 μM)
A6: inhibition of radioligand binding ([1]; [125I]-S36057, FlashPlate): − (“−” indicates less than 50% inhibition at 10 μM)
A7: inhibition of radioligand binding (Human μ-opioid (MOP); [3H]-Naloxone, FlashPlate): − (“−” indicates less than 50% inhibition at 10 μM)
A8: inhibition of radioligand binding (Human neurokinin (NK1); [125I]-Substance P, filtration): + (“+” indicates greater than 50% inhibition at 10 μM)
A9: inhibition of radioligand binding ([2]; [125I]-PYY, FlashPlate): − (“−” indicates less than 50% inhibition at 10 μM)
A10: inhibition of radioligand binding (Human opioid (ORL1); [125I]-Nociceptin, FlashPlate): − (“−” indicates less than 50% inhibition at 10 μM)
A11: inhibition of radioligand binding (Mouse urotensin (mUR2); [125I]-Urotensin II, FlashPlate): − (“−” indicates less than 50% inhibition at 10 μM)
